Reference: ChEMBL document CHEMBL1212831, “Discovery of N-[(2S)-5-(6-fluoro-3-pyridinyl)-2,3-dihydro-1H-inden-2-yl]-2-propanesulfonamide, a novel clinical AMPA receptor positive modulator” (J Med Chem, 2010)
≈ marks a conversion by molar mass, not a printed value. Calls of active or inactive are those of the source. The rule behind the calls is not given here.

Experiments:
[1] = Volume of distribution at steady state in Beagle dog at 0.125 mg/kg, iv and 0.5 mg/kg, po; type: ADME, organism-based, Canis lupus familiaris; details: in vivo, read-out: Vdss
Homo sapiens [2] = assay: Toxicity in human at 0.25 to 6 mg/kg administered as single dose; type: organism-based; set-up: dose 0.25-6 mg/kg; details: in vivo
[3] = Tmax in cynomolgus monkey at 0.5 mg/kg, po; type: ADME, organism-based, Macaca fascicularis; set-up: dose 0.5 mg/kg, route oral; details: in vivo
[4] = Apparent half life in human; type: ADME, organism-based; details: in vivo, read-out: beta t1/2 (converted)
Glutamate receptor 2 [5] = biological target: T1, Glutamate receptor 2 (Homo sapiens, UniProt P42262); assay: Activation of human recombinant GluR2 flip isoform expressed in HEK293 cells assessed as increase of glutamate-induced inward current at 30 uM by whole cell voltage-clamp electrophysiology assay; type: cell-based
T1 sequence (P42262 whole entry, canonical isoform): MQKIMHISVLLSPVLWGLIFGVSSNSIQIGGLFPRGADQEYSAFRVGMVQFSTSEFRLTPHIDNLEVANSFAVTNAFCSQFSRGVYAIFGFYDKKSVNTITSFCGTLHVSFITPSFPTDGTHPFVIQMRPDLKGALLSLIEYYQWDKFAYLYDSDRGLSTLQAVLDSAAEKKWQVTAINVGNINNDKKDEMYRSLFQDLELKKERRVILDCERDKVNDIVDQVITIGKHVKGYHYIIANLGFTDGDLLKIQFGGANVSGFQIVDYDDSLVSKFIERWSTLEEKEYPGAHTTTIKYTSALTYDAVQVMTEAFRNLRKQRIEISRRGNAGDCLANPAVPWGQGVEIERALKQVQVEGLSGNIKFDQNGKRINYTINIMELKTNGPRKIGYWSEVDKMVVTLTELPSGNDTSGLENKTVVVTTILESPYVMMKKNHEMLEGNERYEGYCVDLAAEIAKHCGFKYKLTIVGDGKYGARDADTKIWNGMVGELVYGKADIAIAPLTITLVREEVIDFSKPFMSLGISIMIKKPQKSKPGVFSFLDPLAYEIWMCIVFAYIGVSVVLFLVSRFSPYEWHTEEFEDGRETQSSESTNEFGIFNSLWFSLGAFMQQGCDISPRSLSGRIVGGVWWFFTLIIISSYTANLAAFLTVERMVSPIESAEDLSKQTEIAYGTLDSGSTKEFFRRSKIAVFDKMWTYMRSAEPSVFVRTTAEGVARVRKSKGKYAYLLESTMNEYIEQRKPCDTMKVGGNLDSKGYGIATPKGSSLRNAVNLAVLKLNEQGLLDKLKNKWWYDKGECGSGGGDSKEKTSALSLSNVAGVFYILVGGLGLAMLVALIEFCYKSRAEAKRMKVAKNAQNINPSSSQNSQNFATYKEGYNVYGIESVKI

Cytochrome P450 1A2 = biological target: T2, Cytochrome P450 1A2 (Homo sapiens, UniProt P05177)
T2 sequence (P05177 whole entry): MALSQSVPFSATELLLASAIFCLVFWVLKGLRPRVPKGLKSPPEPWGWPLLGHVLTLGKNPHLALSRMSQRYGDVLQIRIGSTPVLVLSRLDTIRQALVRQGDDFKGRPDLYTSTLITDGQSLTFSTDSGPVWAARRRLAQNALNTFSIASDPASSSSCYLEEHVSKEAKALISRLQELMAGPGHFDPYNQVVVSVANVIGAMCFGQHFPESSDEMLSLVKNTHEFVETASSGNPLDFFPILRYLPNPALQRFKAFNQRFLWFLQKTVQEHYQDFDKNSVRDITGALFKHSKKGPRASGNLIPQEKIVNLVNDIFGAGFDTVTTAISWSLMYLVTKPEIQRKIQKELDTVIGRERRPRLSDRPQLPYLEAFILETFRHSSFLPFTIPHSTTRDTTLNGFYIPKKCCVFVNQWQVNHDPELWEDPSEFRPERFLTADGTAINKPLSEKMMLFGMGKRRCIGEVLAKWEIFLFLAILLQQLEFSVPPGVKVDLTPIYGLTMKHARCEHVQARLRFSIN
Description: Inhibition of human CYP1A2 after 10 mins

in vivo = details: rat, brain/blood
Description: Ratio of brain AUC (0 to t) to blood AUC (0 to t) in rat

Canis familiaris = assay: Liver blood flow in Beagle dog at 0.125 mg/kg, iv and 0.5 mg/kg, po; type: ADME, organism-based, Canis lupus familiaris; details: in vivo
[6] = Plasma protein binding in monkey at 1 ug/ml after 6 hrs by equilibrium dialysis method; type: ADME, cell-free, Macaca mulatta; details: rhesus monkey, read-out: PPB (converted)
[7] = Tmax in Beagle dog at 0.5 mg/kg, po; type: ADME, organism-based, Canis lupus familiaris; set-up: dose 0.5 mg/kg, route oral; details: in vivo
[8] = Chemical stability of the compound; type: physicochemical
[9] = Volume of distribution at steady state in Sprague-Dawley rat at 1 mg/kg, iv and 3 mg/kg, po; type: ADME, organism-based; details: in vivo, read-out: Vdss
[10] = Plasma protein binding in human at 1 ug/ml after 6 hrs by equilibrium dialysis method; type: ADME, cell-free; details: read-out: PPB (converted)
[11] = Oral bioavailability in Sprague-Dawley rat at 3 mg/kg; type: ADME, organism-based; details: in vivo
[12] = Equilibrium solubility of the compound in fasted simulated intestinal fluid at pH 2 to 10; type: physicochemical
Liver microsomes [13] = system: Liver microsomes
Brain [14] = assay: Brain tissue binding in rat at 1 ug/ml after 6 hrs by equilibrium dialysis method; type: ADME, tissue-based
[15] = Half life in Beagle dog at 0.125 mg/kg, iv; type: ADME, organism-based, Canis lupus familiaris; set-up: dose 0.125 mg/kg, route intravenous; details: in vivo
[16] = Cmax in cynomolgus monkey at 0.5 mg/kg, po; type: ADME, organism-based, Macaca fascicularis; set-up: dose 0.5 mg/kg, route oral; details: in vivo
[17] = Half life in Sprague-Dawley rat at 1 mg/kg, iv and 3 mg/kg, po; type: ADME, organism-based; details: in vivo
Glutamate receptor 2 [18] = biological target: T1, Glutamate receptor 2; assay: Activation of human recombinant GluR2 flip isoform expressed in HEK293 cells assessed as increase of glutamate-induced inward current by whole cell voltage-clamp electrophysiology; type: cell-based
[19] = Blood clearance in Sprague-Dawley rat at 1 mg/kg, iv and 3 mg/kg, po; type: ADME, organism-based
[20] = Blood clearance in cynomolgus monkey at 0.125 mg/kg, iv and 0.5 mg/kg, po; type: ADME, organism-based, Macaca fascicularis
Rattus norvegicus [21] = assay: Cognitive enhancing effect in po dosed Lister Hooded rat assessed as reversal of 24 hrs delay-induced retention deficit behavior by novel object recognition assay; type: functional; details: read-out: MED
Brain [22] = assay: Drug level in po dosed Lister Hooded rat brain assessed per gram of tissue; type: ADME, organism-based; details: in vivo
[23] = Half life in Beagle dog at 0.5 mg/kg, po; type: ADME, organism-based, Canis lupus familiaris; set-up: dose 0.5 mg/kg, route oral; details: in vivo
[24] = Half life in Sprague-Dawley rat at 3 mg/kg, po; type: ADME, organism-based; set-up: dose 3 mg/kg, route oral; details: in vivo
Rattus norvegicus [25] = assay: Antiamnesic activity in po dosed assessed as inhibition of amnesic deficit by step-down passive avoidance test; type: functional, organism-based; details: Wistar
[26] = Oral bioavailability in Beagle dog at 0.5 mg/kg; type: ADME, organism-based, Canis lupus familiaris; details: in vivo
Cytochrome P450 2D6 = Cytochrome P450 2D6 (Homo sapiens, UniProt P10635)
Chain of Cytochrome P450 2D6 (P10635 whole entry): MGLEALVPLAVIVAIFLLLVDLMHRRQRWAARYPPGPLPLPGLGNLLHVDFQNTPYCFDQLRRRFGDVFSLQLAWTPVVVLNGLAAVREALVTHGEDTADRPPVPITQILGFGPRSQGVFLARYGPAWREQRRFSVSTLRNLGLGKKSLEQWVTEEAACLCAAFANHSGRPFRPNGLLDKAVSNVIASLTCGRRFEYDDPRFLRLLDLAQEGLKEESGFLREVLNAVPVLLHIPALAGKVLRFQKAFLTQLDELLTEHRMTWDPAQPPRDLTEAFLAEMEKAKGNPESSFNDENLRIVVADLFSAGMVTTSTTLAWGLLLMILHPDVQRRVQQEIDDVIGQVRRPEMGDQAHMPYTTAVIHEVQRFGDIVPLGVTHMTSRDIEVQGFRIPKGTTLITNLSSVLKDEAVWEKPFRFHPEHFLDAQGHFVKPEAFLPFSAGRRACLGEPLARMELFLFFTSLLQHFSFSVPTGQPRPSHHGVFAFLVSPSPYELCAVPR
Description: Inhibition of human CYP2D6 after 10 mins

[27] = Blood clearance in Beagle dog at 0.125 mg/kg, iv and 0.5 mg/kg, po; type: ADME, organism-based, Canis lupus familiaris
[28] = Equilibrium solubility of the compound in water at pH 2 to 10; type: physicochemical
Cynomolgus monkey = assay: Cardiotoxicity in conscious cynomolgus monkey up to 2.5 mg/kg, po; type: toxicity, organism-based, Macaca fascicularis; set-up: dose 2.5 mg/kg, route oral; details: in vivo
Liver microsomes [29] = system: Liver microsomes; remark: listed apart in the source
Cytochrome P450 3A4 = Cytochrome P450 3A4 (Homo sapiens, UniProt P08684)
Chain of Cytochrome P450 3A4 (P08684 whole entry): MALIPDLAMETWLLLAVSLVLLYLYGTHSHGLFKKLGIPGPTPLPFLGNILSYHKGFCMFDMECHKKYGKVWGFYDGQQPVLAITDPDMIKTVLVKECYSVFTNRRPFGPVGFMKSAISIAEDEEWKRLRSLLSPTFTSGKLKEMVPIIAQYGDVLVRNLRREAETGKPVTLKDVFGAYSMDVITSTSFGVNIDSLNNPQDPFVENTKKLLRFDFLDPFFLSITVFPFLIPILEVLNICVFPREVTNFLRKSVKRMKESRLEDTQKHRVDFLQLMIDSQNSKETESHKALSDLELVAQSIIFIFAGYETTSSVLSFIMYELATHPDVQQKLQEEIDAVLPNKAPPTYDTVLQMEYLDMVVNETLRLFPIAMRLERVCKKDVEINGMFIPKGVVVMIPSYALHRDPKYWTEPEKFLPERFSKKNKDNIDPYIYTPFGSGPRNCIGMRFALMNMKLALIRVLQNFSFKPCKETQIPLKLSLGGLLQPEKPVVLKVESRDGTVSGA
Description: Inhibition of human CYP3A4 after 10 mins

[30] = Volume of distribution at steady state in cynomolgus monkey at 0.125 mg/kg, iv and 0.5 mg/kg, po; type: ADME, organism-based, Macaca fascicularis; details: in vivo, read-out: Vdss
[31] = Oral bioavailability in cynomolgus monkey at 0.5 mg/kg; type: ADME, organism-based, Macaca fascicularis; details: in vivo
[32] = Half life in cynomolgus monkey at 0.5 mg/kg, po; type: ADME, organism-based, Macaca fascicularis; set-up: dose 0.5 mg/kg, route oral; details: in vivo
[33] = Plasma protein binding in mouse at 1 ug/ml after 6 hrs by equilibrium dialysis method; type: ADME, cell-free; details: read-out: PPB (converted)
[34] = Cmax in Sprague-Dawley rat at 3 mg/kg, po; type: ADME, organism-based; set-up: dose 3 mg/kg, route oral; details: in vivo
Cytochrome P450 2C9 = Cytochrome P450 2C9 (Homo sapiens, UniProt P11712)
Chain of Cytochrome P450 2C9 (P11712 whole entry): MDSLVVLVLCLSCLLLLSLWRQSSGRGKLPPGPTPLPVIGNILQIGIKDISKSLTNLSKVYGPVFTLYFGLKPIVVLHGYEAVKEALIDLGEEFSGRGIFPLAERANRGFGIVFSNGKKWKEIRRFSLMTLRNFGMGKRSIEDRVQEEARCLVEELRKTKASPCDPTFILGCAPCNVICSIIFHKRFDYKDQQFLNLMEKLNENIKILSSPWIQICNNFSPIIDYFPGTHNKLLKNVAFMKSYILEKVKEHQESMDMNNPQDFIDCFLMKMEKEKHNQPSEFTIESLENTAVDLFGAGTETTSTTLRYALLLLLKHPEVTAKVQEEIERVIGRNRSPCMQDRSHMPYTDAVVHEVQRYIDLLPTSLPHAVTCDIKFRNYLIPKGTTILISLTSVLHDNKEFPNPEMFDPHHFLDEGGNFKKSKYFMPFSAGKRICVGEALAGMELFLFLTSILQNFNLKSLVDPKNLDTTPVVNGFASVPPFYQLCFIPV
Description: Inhibition of human CYP2C9 after 10 mins

[35] = Plasma protein binding in dog at 1 ug/ml after 6 hrs by equilibrium dialysis method; type: ADME, cell-free, Canis lupus familiaris; details: read-out: PPB (converted)
Homo sapiens [36] = assay: Toxicity in human at 0.1 mg/kg QD for 28 days; type: organism-based; set-up: dose 0.1 mg/kg; details: in vivo, 672 h
Blood = assay: Drug level in po dosed Lister Hooded rat blood; type: ADME, organism-based; details: in vivo
[37] = Half life in Sprague-Dawley rat at 1 mg/kg, iv; type: ADME, organism-based; set-up: dose 1 mg/kg, route intravenous; details: in vivo

Structure (SMILES): CC(C)S(=O)(=O)N[C@H]1Cc2ccc(-c3ccc(F)nc3)cc2C1 [GSK-729327]
- Vd [1]: 4.8 L/kg
- Activity (Homo sapiens [2]): Non-toxic
- Tmax [3]: 6 h
- half-life [4]: 107 h
- Activity (Glutamate receptor 2 [5]): Active
- IC50 (Cytochrome P450 1A2): > 10 µM
- Kp (in vivo): 2.1
- LBF (Canis familiaris): 11%
- fraction unbound at 6 h, 1 ug/ml [6]: 0.152
- Tmax [7]: 2 h
- Stability [8]: Stable
- Vd [9]: 2.4 L/kg
- fraction unbound at 6 h, 1 ug/ml [10]: 0.092
- bioavailability [11]: 61%
- solubility thermodynamic [12]: 100 µg/mL (≈ 299 µM)
- IC50 (Liver microsomes [13]): < 0.7 µM
- Activity (Brain [14]): 97.4%
- half-life [15]: 16 h
- Cmax [16]: 115 ng/mL
- half-life [17]: 5 h
- Activity (Glutamate receptor 2 [18]): Dose-dependent effect
- clearance [19]: 5.4 mL/min/kg
- clearance [20]: 1.4 mL/min/kg
- minimal effective dose (Rattus norvegicus [21]): 0.3 mg/kg
- Drug uptake (Brain [22]): 122 ng/g
- half-life [23]: 17 h
- half-life [24]: 6.6 h
- inhibition (Rattus norvegicus [25]): inactive
- bioavailability [26]: 61%
- IC50 (Cytochrome P450 2D6): > 10 µM
- clearance [27]: 3.4 mL/min/kg
- solubility thermodynamic [28]: 100 µg/mL (≈ 299 µM)
- Activity (Cynomolgus monkey): Non-toxic
- IC50 (Liver microsomes [29]): 0.7 µM
- IC50 (Cytochrome P450 3A4): > 10 µM
- Vd [30]: 1.8 L/kg
- bioavailability [31]: 51%
- half-life [32]: 24 h
- fraction unbound at 6 h, 1 ug/ml [33]: 0.15
- Cmax [34]: 416 ng/mL
- IC50 (Cytochrome P450 2C9): > 10 µM
- fraction unbound at 6 h, 1 ug/ml [35]: 0.205
- Activity (Homo sapiens [36]): Non-toxic
- Drug uptake (Blood): 81 ng/mL
- half-life [37]: 5 h
